Laboratory results published in EP4603105A1, “PHARMACEUTICAL COMPOSITION CONTAINING CYCLIC COMPOUND HAVING SELECTIVE KRAS INHIBITORY EFFECT AGAINST HRAS AND NRAS” (CHUGAI SEIYAKU KABUSHIKI KAISHA, priority 2022, dated 2024).
*1 amine or outer side, *2 acyl side, *3 side chain or, on linkers, in order; H or OH if unused. Where a SMILES comes first, the peptide text is derived from it. Bridges are numbered along the chain shown (N, C = ends). [ ]: non-standard residue; d: D form. The star is where a group is joined. hPhe(3,5-F2-4-CF3) = N[C@@H](CCc1cc(F)c(C(F)(F)F)c(F)c1)C(=O)O; hPhe(3-Cl-4-CF3) = N[C@@H](CCc1ccc(C(F)(F)F)c(Cl)c1)C(=O)O; NPrPhe(4-CF3) = CCCN[C@@H](Cc1ccc(C(F)(F)F)cc1)C(=O)O; NEtPhe(4-Me) = CCN[C@@H](Cc1ccc(C)cc1)C(=O)O; X16 = O=C([C@@H](N[*:1])C1CC(F)(F)C1)[*:2]; NMeGly(cPent) = CN[C@H](C(=O)O)C1CCCC1; Pro(4,4-F2) = O=C(O)[C@@H]1CC(F)(F)CN1; NMeD = CN[C@@H](CC(=O)O)C(=O)O; NMeL = CN[C@@H](CC(C)C)C(=O)O; Morpholide = C1CN(*)CCO1; NMeA = CN[C@@H](C)C(=O)O; Piperidide = C1CCN(*)CC1; Ac5c = NC1(C(=O)O)CCCC1; Aze = O=C(O)[C@@H]1CCN1; Ac4c = NC1(C(=O)O)CCC1; Sar = CNCC(=O)O

Tests used:
[1] = biological target: GDP-bound NRAS wild-type protein (Homo sapiens, UniProt P01111); assay: Binding to NRAS by surface plasmon resonance (SPR), KD and KD ratio to KRAS
GDP-bound NRAS wild-type protein, sequence (P01111 whole entry): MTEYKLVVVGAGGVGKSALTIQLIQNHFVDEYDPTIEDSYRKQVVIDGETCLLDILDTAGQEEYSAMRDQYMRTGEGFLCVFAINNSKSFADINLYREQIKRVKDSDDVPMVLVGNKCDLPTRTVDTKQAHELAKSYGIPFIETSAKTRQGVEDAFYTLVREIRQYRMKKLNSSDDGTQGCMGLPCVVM
Procedure, shortened: (§1)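 Affinity is measured by surface plasmon resonance at 30°C against captured, GDP-loaded RAS carrying a biotinylated Avi tag. Compounds are titrated by single-cycle kinetics, and KD comes from a 1:1 fit.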

HRAS wild-type protein = HRAS wild-type protein (Homo sapiens, UniProt P01112); assay: Binding to HRAS by surface plasmon resonance (SPR), KD and KD ratio to KRAS
HRAS wild-type protein, sequence (P01112 whole entry): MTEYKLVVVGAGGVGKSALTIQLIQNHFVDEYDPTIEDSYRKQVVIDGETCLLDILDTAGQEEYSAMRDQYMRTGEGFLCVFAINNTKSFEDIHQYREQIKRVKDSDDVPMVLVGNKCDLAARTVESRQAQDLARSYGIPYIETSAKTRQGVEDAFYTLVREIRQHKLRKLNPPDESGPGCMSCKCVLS
Procedure, shortened: as §1

[2] = test system: human lung cancer strain NCI-H441; format: cell-based
Procedure, shortened: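 Readout: […] after the ATP-based reagent. Compound: serial dilutions in dimethyl sulfoxide.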

[3] = ratio of the KD value with respect to GDP-bound NRAS wild-type protein to the KD value with respect to KRAS
[4] = ratio of the KD value with respect to HRAS wild-type protein to the KD value with respect to KRAS
[5] = ratio of KD for GDP-bound NRAS wild-type protein to KD for KRAS
[6] = ratio of KD for HRAS wild-type protein to KD for KRAS

Compound	NRAS /KRAS [1, 3]	HRAS /KRAS (HRAS wild-type protein; [4])	IC50 [2] [nM]	NRAS /KRAS ([1]; ratio of KD value for GDP-bound NRAS wild-type protein to KD value for KRAS (SPR))	HRAS /KRAS (HRAS wild-type protein; ratio of KD value for HRAS wild-type protein to KD value for KRAS (SPR))	NRAS /KRAS [1, 5]	HRAS /KRAS (HRAS wild-type protein; [6])
CCO[C@@H]1C[C@H]2C(=O)NC3(CC(C)(C)C3)C(=O)N(C)[C@@H](C(CC)CC)C(=O)N(C)[C@H](C(=O)N3CCCC3)CC(=O)N(C)[C@@H](COC)C(=O)N[C@@H]([C@@H](C)CC)C(=O)N(C)CC(=O)N(C)[C@H]3C/C=C\CCN(C3=O)[C@@H](Cc3ccc(C(F)(F)F)cc3)C(=O)N(C)CC(=O)N[C@@H](CCc3ccc(C(F)(F)F)c(OC)c3)C(=O)N2C1 [PP2159]	AA (a compound having 20 or more is denoted as AA)	A (a compound having 10 or more and less than 20 is denoted as A)	19.5	–	–	–	–
CCO[C@@H]1C[C@H]2C(=O)NC3(CC(C)(C)C3)C(=O)N(C)[C@@H](C3CCCC3)C(=O)N(C)[C@H](C(=O)N(C)CC)CC(=O)N(C)[C@@H](CC)C(=O)N[C@@H]([C@@H](C)CC)C(=O)N(C)CC(=O)N(C)[C@H]3C/C=C\CCN(C3=O)[C@@H](Cc3ccc(C(F)(F)F)cc3)C(=O)N(C)CC(=O)N[C@@H](CCc3ccc(C(F)(F)F)c(OC)c3)C(=O)N2C1 [PP1653]	–	–	1.6	A (a compound having 10 or more and less than 20 is denoted as A)	A (a compound having 10 or more and less than 20 is denoted as A)	–	–
CC[C@H](C)[C@@H]1NC(=O)[C@H](CC(C)C)N(C)C(=O)C[C@@H](C(=O)N2CCOCC2)N(C)C(=O)[C@H](C2CCCC2)N(C)C(=O)C2(CCCCC2)NC(=O)[C@@H]2CCCN2C(=O)[C@H](CCc2cc(F)c(C(F)(F)F)c(F)c2)NC(=O)CN(C)C(=O)[C@H](Cc2ccc(C(F)(F)F)cc2)N2CCCCC[C@@H](C2=O)N(C)C(=O)CN(C)C1=O [PP0498]	B (a compound having 3 or more and less than 10 is denoted as B)	B (a compound having 3 or more and less than 10 is denoted as B)	147	–	–	–	–
CCCN(C)C(=O)[C@@H]1CC(=O)N(C)[C@@H](CCOC)C(=O)N[C@@H]([C@@H](C)CC)C(=O)N(C)CC(=O)N(C)[C@H]2C/C=C\CCN(C2=O)[C@@H](Cc2ccc(C(F)(F)F)cc2)C(=O)N(C)CC(=O)N[C@@H](CCc2cc(F)c(C(F)(F)F)c(F)c2)C(=O)N2C[C@@H](C)C[C@H]2C(=O)NC2(CC(C)(C)C2)C(=O)N(C)[C@@H](C2CCCC2)C(=O)N1C [PP1974]	A (a compound having 10 or more and less than 20 is denoted as A)	A (a compound having 10 or more and less than 20 is denoted as A)	50	–	–	–	–
CCCO[C@@H]1CCN2C(=O)[C@H](CCc3cc(F)c(C(F)(F)F)c(F)c3)NC(=O)CN(C)C(=O)[C@H](Cc3ccc(C(F)(F)F)cc3)N3CCCC[C@@H](C3=O)N(C)C(=O)CN(C)C(=O)[C@H]([C@@H](C)CC)NC(=O)[C@H](CC(C)C)N(C)C(=O)C[C@@H](C(=O)N3CCOCC3)N(C)C(=O)[C@H](C3CCCC3)N(C)C(=O)C3(CCC3)NC(=O)[C@H]12 [PP1080]	–	–	39.2	–	–	B (a compound having 3 or more and less than 10 is denoted as B)	B (a compound having 3 or more and less than 10 is denoted as B)
CCCN1C(=O)[C@@H]2CCN2C(=O)CN(C)C(=O)[C@H](C2CC(F)(F)C2)NC(=O)[C@H](CC(C)C)N(C)C(=O)C[C@@H](C(=O)N2CCOCC2)N(C)C(=O)[C@H](C2CCCC2)N(C)C(=O)C2(CCCC2)NC(=O)[C@@H]2CCCN2C(=O)[C@H](CCc2cc(F)c(C(F)(F)F)c(F)c2)NC(=O)CN(C)C(=O)[C@@H]1Cc1ccc(C(F)(F)F)cc1 [PP0787] ([NMeL][X16][Sar][Aze][NPrPhe(4-CF3)][Sar][hPhe(3,5-F2-4-CF3)]P[Ac5c][NMeGly(cPent)][NMeD]-Morpholide; lactam N-11)	–	–	38.3	–	–	C (A compound having a KD ratio of 0.1 or more and less than 3 is denoted as C)	B (a compound having 3 or more and less than 10 is denoted as B)
CC[C@H](C)[C@@H]1NC(=O)[C@H](C)N(C)C(=O)C[C@@H](C(=O)N2CCOCC2)N(C)C(=O)[C@H](C2CCCC2)N(C)C(=O)C2(CCCC2)NC(=O)[C@@H]2CCCN2C(=O)[C@H](CCc2ccc(C(F)(F)F)c(Cl)c2)NC(=O)CN(C)C(=O)[C@H](Cc2ccc(C)cc2)N(CC)C(=O)CN(C)C(=O)CN(C)C1=O [PP0031] ([NMeA]I[Sar][Sar][NEtPhe(4-Me)][Sar][hPhe(3-Cl-4-CF3)]P[Ac5c][NMeGly(cPent)][NMeD]-Morpholide; lactam N-11)	–	–	11.4	–	–	B (a compound having 3 or more and less than 10 is denoted as B)	C (A compound having a KD ratio of 0.1 or more and less than 3 is denoted as C)
CC[C@H](C)[C@@H]1NC(=O)[C@H](CC(C)C)N(C)C(=O)C[C@@H](C(=O)N2CCOCC2)N(C)C(=O)[C@H](C2CCCC2)N(C)C(=O)C2(CCCC2)NC(=O)[C@@H]2CCCN2C(=O)[C@H](CCc2cc(F)c(C(F)(F)F)c(F)c2)NC(=O)CN(C)C(=O)[C@H](Cc2ccc(C(F)(F)F)cc2)N2CCCCC[C@@H](C2=O)N(C)C(=O)[C@@H]2CCCN2C1=O [PP0485]	A (a compound having 10 or more and less than 20 is denoted as A)	B (a compound having 3 or more and less than 10 is denoted as B)	1260	–	–	–	–
CCO[C@@H]1C[C@H]2C(=O)NC3(CCC3)C(=O)N(C)[C@@H](C3CCCC3)C(=O)N(C)[C@H](C(=O)N(C)C)CC(=O)N(C)[C@@H](CC)C(=O)N[C@@H]([C@@H](C)CC)C(=O)N(C)CC(=O)N(C)[C@H]3C/C=C\CCN(C3=O)[C@@H](Cc3ccc(C(F)(F)F)cc3)C(=O)N(C)CC(=O)N[C@@H](CCc3cc(F)c(C(F)(F)F)c(F)c3)C(=O)N2C1 [PP0824]	–	–	23.6	–	–	A (a compound having 10 or more and less than 20 is denoted as A)	A (a compound having 10 or more and less than 20 is denoted as A)
CCCN1C(=O)CN(C)C(=O)CN(C)C(=O)[C@H]([C@@H](C)CC)NC(=O)[C@H](CC(C)C)N(C)C(=O)C[C@@H](C(=O)N2CCCCC2)N(C)C(=O)[C@H](C2CCCC2)N(C)C(=O)C2(CCC2)NC(=O)[C@@H]2CCCN2C(=O)[C@H](CCc2ccc(C(F)(F)F)c(Cl)c2)NC(=O)CN(C)C(=O)[C@@H]1Cc1ccc(C(F)(F)F)cc1 [PP1930] ([NMeL]I[Sar][Sar][NPrPhe(4-CF3)][Sar][hPhe(3-Cl-4-CF3)]P[Ac4c][NMeGly(cPent)][NMeD]-Piperidide; lactam N-11)	B (a compound having 3 or more and less than 10 is denoted as B)	C (A compound having a KD ratio of 0.1 or more and less than 3 is denoted as C)	7	–	–	–	–
CCCN1C(=O)CN(C)C(=O)[C@@H]2CCN2C(=O)[C@H]([C@@H](C)CC)NC(=O)[C@H](CC(C)C)N(C)C(=O)C[C@@H](C(=O)N(C)C)NC(=O)[C@H](C2CCCC2)N(C)C(=O)C2(CCCC2)NC(=O)[C@@H]2CC(F)(F)CN2C(=O)[C@H](CCc2ccc(C(F)(F)F)c(Cl)c2)NC(=O)CN(C)C(=O)[C@@H]1Cc1ccc(C(F)(F)F)cc1 [PP0375] ([NMeL]I[Aze][Sar][NPrPhe(4-CF3)][Sar][hPhe(3-Cl-4-CF3)][Pro(4,4-F2)][Ac5c][NMeGly(cPent)]D-NMe2; lactam N-11)	–	–	57.1	–	–	B (a compound having 3 or more and less than 10 is denoted as B)	B (a compound having 3 or more and less than 10 is denoted as B)
CCO[C@@H]1C[C@H]2C(=O)NC3(CCC3)C(=O)N(C)[C@@H](C3CCCC3)C(=O)N(C)[C@H](C(=O)N(C)C)CC(=O)N(C)[C@@H](CC)C(=O)N[C@@H]([C@@H](C)CC)C(=O)N(C)CC(=O)N(C)[C@H]3CCCCCN(C3=O)[C@@H](Cc3ccc(F)c(Cl)c3)C(=O)N(C)CC(=O)N[C@@H](CCc3cc(F)c(C(F)(F)F)c(F)c3)C(=O)N2C1 [PP0909]	–	–	58.1	–	–	B (a compound having 3 or more and less than 10 is denoted as B)	B (a compound having 3 or more and less than 10 is denoted as B)
CC[C@H](C)[C@@H]1NC(=O)[C@H](CC(C)C)N(C)C(=O)C[C@@H](C(=O)N2CCOCC2)N(C)C(=O)[C@H](C2CCCC2)N(C)C(=O)C2(CCC2)NC(=O)[C@@H]2C[C@@H](OCC(F)F)CN2C(=O)[C@H](CCc2cc(F)c(C(F)(F)F)c(F)c2)NC(=O)CN(C)C(=O)[C@H](Cc2ccc(C(F)(F)F)cc2)N2CCCC[C@@H](C2=O)N(C)C(=O)CN(C)C1=O [PP1002]	–	–	2.1	–	–	B (a compound having 3 or more and less than 10 is denoted as B)	B (a compound having 3 or more and less than 10 is denoted as B)
CCO[C@@H]1C[C@H]2C(=O)NC3(CC(C)(C)C3)C(=O)N(C)[C@@H](C(CC)CC)C(=O)N(C)[C@H](C(=O)N(C)C)CC(=O)N(C)[C@@H](CC)C(=O)N[C@@H]([C@@H](C)CC)C(=O)N(C)CC(=O)N(C)[C@H]3C/C=C\CCN(C3=O)[C@@H](Cc3ccc(C(F)(F)F)cc3)C(=O)N(C)CC(=O)N[C@@H](CCc3ccc(C(F)(F)F)c(OC)c3)C(=O)N2C1 [PP2066]	A (a compound having 10 or more and less than 20 is denoted as A)	B (a compound having 3 or more and less than 10 is denoted as B)	3.2	–	–	–	–
